Assays:
[1] = Measurement of log P values by HPLC on reversed phase columns (EEC directive 79/831 Annex V.A8; methods [a] pH 2.3, [b] pH 2.7, [c] pH 7.8); format: physicochemical
Protocol: Measurement of log P-values:
Measurement of log P values was performed according EEC directive 79/831 Annex V.A8 by HPLC (High Performance Liquid Chromatography) on reversed phase columns with the following methods:
^[a] Measurement was done at pH 2.3 with 0.1% phosphoric acid and acetonitrile as eluent with a linear gradient from 10% acetonitrile to 95% acetonitrile.
^[b] measurement of LC-MS was done at pH 2.7 with 0.1% formic acid in water and with acetonitrile (contains 0.1% formic acid) as eluent with a linear gradient from 10% acetonitrile to 95% acetonitrile.
^[c] Measurement with LC-MS was done at pH 7.8 with 0.001 molar ammonium hydrogen carbonate solution in water as eluent with a linear gradient from 10% acetonitrile to 95% acetonitrile.
Calibration was done with not branched alkan2-ones (with 3 to 16 carbon atoms) with known log P-values (measurement of log P values using retention times with linear interpolation between successive alkanones).. lambda-maX-values were determined using UV-spectra from 200 nm to 400 nm and the peak values of the chromatographic signals.

Haemonchus contortus = Haemonchus contortus - Test (HAEMCO); format: in vivo; conditions: after 5 days, 100% = all larvae killed
Protocol: Haemonchus contortus—Test (HAEMCO)
Solvent: dimethyl sulfoxide
To produce a suitable preparation of active compound, 10 mg of active compound are dissolved in 0.5 ml solvent, and the concentrate is diluted with “Ringer's solution” to the desired concentration.
Approximately 40 larvae of the red stomach worm (Haemonchus contortus) are transferred into a test tube containing compound solution.
After 5 days percentage of larval mortality is recorded. 100% efficacy means all larvae are killed, 0% efficacy means no larvae are killed.

[2] = method [b]: LC-MS at pH 2.7, 0.1% formic acid in water / acetonitrile
[3] = method [b]: LC-MS, pH 2.7, 0.1% formic acid in water / acetonitrile
[4] = method [c]: LC-MS, pH 7.8, 0.001 molar ammonium hydrogen carbonate / acetonitrile
[5] = method [c]: LC-MS at pH 7.8, 0.001 molar ammonium hydrogen carbonate in water / acetonitrile
[6] = method [a]: HPLC, pH 2.3, 0.1% phosphoric acid / acetonitrile

| SMILES | log P [1, 2] | logP [1, 3] | further results |
| --- | --- | --- | --- |
| COC(CNC(=O)c1nccnc1C(F)(F)F)c1cc(Cl)cc(Cl)c1 (centres unmarked) [Compound 120] | 3.42^[b] | – | activity (efficacy: larval mortality) (Haemonchus contortus; 20 ppm): 80% |
| COC(c1ccc(Cl)cc1)C(C)NC(=O)c1ccoc1C (centres unmarked) [Compound 59] | – | 3.21^[b] | activity (efficacy: larval mortality) (Haemonchus contortus; 100 ppm): 90% |
| COC(c1ccc(Cl)cc1)C(C)NC(=O)c1ccsc1Br (centres unmarked) [Compound 63] | – | 3.68^[b] | activity (efficacy: larval mortality) (Haemonchus contortus; 100 ppm): 100% |
| COC(c1ccc(Cl)cc1)C(C)(C)NC(=O)c1ccccc1F (centres unmarked) [Compound 83] | – | 4.24^[b] | logP [1, 4]: 3.99^[c]; |
| COC(c1cc(Cl)cc(Cl)c1)C(C)NC(=O)c1cccnc1C(F)F (centres unmarked) [Compound 93] | – | 2.03^[b] | – |
| COC(CNC(=O)c1cccnc1Cl)c1ccc(Cl)cc1Cl (centres unmarked) [Compound 102] | – | 2.75^[b] | – |
| COC(CNC(=O)c1c(C(F)F)nn(C)c1Cl)c1cc(Cl)cc(Cl)c1 (centres unmarked) [Compound 40] | – | 3.55^[b] | – |
| COC(c1ccc(Cl)cc1Cl)C(C)NC(=O)c1ccnn1C(F)F (centres unmarked) [Compound 123] | 3.09^[b] | – | activity (efficacy: larval mortality) (Haemonchus contortus; 20 ppm): 100% |
| COC(c1ccccc1Cl)C(C)NC(=O)c1ccccc1C (centres unmarked) [Compound 148] | 3.26^[b] | – | log P [1, 5]: 3.23^[c]; |
| Cc1ccsc1C(=O)NCC(OCC(C)C)c1ccc(Cl)cc1 (centres unmarked) [compound 7] | – | – | logP [1, 6]: 4.49^[a] |
| CCC(NC(=O)c1cccnc1C(F)F)C(OC)c1ccc(Cl)cc1Cl (centres unmarked) [Compound 90] | – | 3.35^[b] | – |
| CCOC(c1ccc(Cl)cc1Cl)C(C)NC(=O)c1c(C(F)F)nn(C)c1F (centres unmarked) [Compound 47] | – | 4.20^[b] | – |
| COC(c1ccc(Cl)cc1)C(C)(C)NC(=O)c1sccc1Cl (centres unmarked) [Compound 86] | – | 4.72^[b] | logP [1, 4]: 4.43^[c]; |
| COC(c1ccc(Cl)cc1)C(C)NC(=O)c1ccsc1 (centres unmarked) [Compound 62] | – | 2.84^[b] | – |
| COC(c1ccccc1Cl)C(C)NC(=O)c1ccccc1F (centres unmarked) [Compound 147] | 3.44^[b] | – | log P [1, 5]: 3.42^[c]; |
| CCC(NC(=O)c1cccnc1Cl)C(OC)c1ccc(Cl)cc1Cl (centres unmarked) [Compound 89] | – | 3.33^[b] | – |
| COC(c1ccc(Cl)cc1)C(C)(C)NC(=O)c1sccc1I (centres unmarked) [Compound 87] | – | 4.77^[b] | logP [1, 4]: 4.47^[c]; |
| COC(c1ccc(Cl)cc1Cl)C(C)(C)NC(=O)c1ccccc1C(F)(F)F (centres unmarked) [Compound 76] | – | 4.68^[b] | logP [1, 4]: 4.62^[c]; |
| COC(c1ccc(Cl)cc1)C(C)NC(=O)c1ccccc1C (centres unmarked) [Compound 129] | 3.30^[b] | – | log P [1, 5]: 3.20^[c];; activity (efficacy: larval mortality) (Haemonchus contortus; 20 ppm): 80% |
| C#CCOC(c1ccc(Cl)c(Cl)c1)C(C)(C)NC(=O)c1sccc1C (centres unmarked) [compound 3] | – | – | logP [1, 6]: 4.58^[a] |
| COC(c1ccccc1Cl)C(C)NC(=O)c1ccccc1I (centres unmarked) [Compound 146] | 3.44^[b] | – | log P [1, 5]: 3.40^[c]; |
| COC(c1ccc(Cl)cc1)C(C)(C)NC(=O)c1ccccc1C(F)(F)F (centres unmarked) [Compound 85] | – | 4.25^[b] | logP [1, 4]: 3.99^[c]; |

| SMILES | log P [1, 2] | logP [1, 3] | further results |
| --- | --- | --- | --- |
| COC(c1ccc(Cl)cc1)C(C)NC(=O)c1ccccc1Br (centres unmarked) [Compound 131] | 3.29^[b] | – | log P [1, 5]: 3.30^[c];; activity (efficacy: larval mortality) (Haemonchus contortus; 20 ppm): 90% |
| Cc1ccc(COC(CNC(=O)c2sccc2C)c2ccc(Cl)cc2)cc1 (centres unmarked) [compound 5] | – | – | logP [1, 6]: 4.62^[a] |
| COC(CN(C(=O)c1cccnc1Cl)C1CC1)c1ccc(Cl)cc1Cl (centres unmarked) [Compound 167] | 3.76^[b] | – | – |
| COC(c1ccc(Cl)cc1)C(C)NC(=O)c1c(F)cccc1C(F)(F)F (centres unmarked) [Compound 134] | 3.65^[b] | – | log P [1, 5]: 3.61^[c]; |
| COC(CNC(=O)c1c(C(F)F)nn(C)c1F)c1cc(Cl)cc(Cl)c1 (centres unmarked) [Compound 41] | – | 3.33^[b] | – |
| CCC(NC(=O)c1c(C(F)F)nn(C)c1F)C(OC)c1ccc(Cl)cc1Cl (centres unmarked) [Compound 49] | – | 3.94^[b] | – |
| COC(CNC(=O)c1ccsc1Cl)c1ccc(Cl)cc1 (centres unmarked) [Compound 70] | – | 3.15^[b] | logP [1, 4]: 3.13^[c];; activity (efficacy: larval mortality) (Haemonchus contortus; 100 ppm): 100% |
| COC(CNC(=O)c1c(C(F)F)nn(C)c1Cl)c1ccc(Cl)cc1Cl (centres unmarked) [Compound 44] | – | 3.48^[b] | – |
| COC(c1ccc(Cl)cc1Cl)C1(NC(=O)c2ccccc2C)CC1 (centres unmarked) [Compound 153] | 3.75^[b] | – | log P [1, 5]: 3.72^[c]; |
| CCn1nc(C)c(C)c1C(=O)NC(C)C(OC)c1ccccc1 (centres unmarked) [Compound 55] | – | 2.71^[b] | – |
| COC(c1cc(Cl)cc(Cl)c1)C(C)NC(=O)c1nccnc1C(F)(F)F (centres unmarked) [Compound 95] | – | 3.74^[b] | – |
| COC(CN(C(=O)c1nccnc1C(F)(F)F)C1CC1)c1ccc(Cl)cc1Cl (centres unmarked) [Compound 168] | 4.37^[b] | – | – |
| COC(CNC(=O)c1c(C(F)F)nn(C)c1F)c1ccc(Cl)cc1Cl (centres unmarked) [Compound 45] | – | 3.25^[b] | – |
| COC(c1ccc(Cl)cc1)C(C)NC(=O)c1cccnc1Cl (centres unmarked) [Compound 135] | 2.65^[b] | – | log P [1, 5]: 2.62^[c]; |
| COC(c1cc(Cl)cc(Cl)c1)C(C)NC(=O)c1c(C(F)F)nn(C)c1Cl (centres unmarked) [Compound 42] | – | 3.92^[b] | – |
| COC(CNC(=O)c1cn(C)nc1C(F)F)c1ccccc1 (centres unmarked) [Compound 16] | – | 1.93^[b] | – |
| COC(c1ccc(Cl)cc1Cl)C(C)NC(=O)c1cccnc1Cl (centres unmarked) [Compound 34] | – | – | activity (efficacy: larval mortality) (Haemonchus contortus; 100 ppm): 90% |
| COC(c1ccc(Cl)cc1Cl)C1(NC(=O)c2c(C(F)F)nn(C)c2Cl)CC1 (centres unmarked) [Compound 50] | – | 3.70^[b] | – |
| COC(c1ccccc1Cl)C(C)NC(=O)c1ccccc1[N+](=O)[O-] (centres unmarked) [Compound 138] | 2.82^[b] | – | log P [1, 5]: 2.78^[c]; |
| COC(c1ccc(Cl)cc1Cl)C(C)NC(=O)c1c(C)c(C)nn1C(F)F (centres unmarked) [Compound 116] | 3.97^[b] | – | log P [1, 5]: 3.84^[c]; |
| COC(c1ccc(F)cc1)C(C)NC(=O)c1ccccc1C(F)(F)F (centres unmarked) [Compound 190] | – | – | log P [1, 5]: 3.16^[c] |

Further lines, with some results ahead:

| log P [1, 2] | logP [1, 3] | SMILES | further results |
| --- | --- | --- | --- |
| 2.99^[b] | – | COC(c1ccc(F)cc1)C(C)NC(=O)c1ccccc1Br (centres unmarked) [Compound 186] | log P [1, 5]: 2.95^[c]; |
| 3.92^[b] | – | COC(c1ccc(Cl)cc1Cl)C(C)N(C(=O)c1cccnc1C(F)F)C1CC1 (centres unmarked) [Compound 171] | – |
| 3.46^[b] | – | COC(c1ccc(Cl)cc1Cl)C1(NC(=O)c2ccnn2C(F)F)CC1 (centres unmarked) [compound 121] | – |
| – | 3.73^[b] | COC(c1ccc(Cl)cc1Cl)C(C)NC(=O)c1cc(C)nn1C(F)F (centres unmarked) [compound 115] | – |
| – | 3.13^[b] | COC(c1ccc(Cl)cc1Cl)C(C)NC(=O)c1c(C)nn(C)c1F (centres unmarked) [compound 13] | – |
| 4.37^[b] | – | CCOC(c1ccc(Cl)cc1Cl)C(C)NC(=O)c1sc(C)nc1C(F)(F)F (centres unmarked) [Compound 204] | log P [1, 5]: 4.42^[c]; |
| 3.04^[b] | – | COC(c1ccc(F)cc1)C(C)NC(=O)c1ccccc1F (centres unmarked) [Compound 183] | log P [1, 5]: 3.02^[c]; |
| 4.35^[b] | – | CCOC(c1ccc(Cl)cc1Cl)C(C)NC(=O)c1ccccc1Cl (centres unmarked) [Compound 201] | log P [1, 5]: 4.39^[c]; |
| 4.35^[b] | – | CCOC(c1ccc(Cl)cc1Cl)C(C)NC(=O)c1ccccc1C (centres unmarked) [Compound 198] | log P [1, 5]: 4.33^[c]; |
| 4.69^[b] | – | COC(c1ccc(Cl)cc1Cl)C(C)N(C(=O)c1nccnc1C(F)(F)F)C1CC1 (centres unmarked) [Compound 174] | – |
| 4.30^[b] | – | COC(c1ccc(Cl)cc1Cl)C(C)N(C(=O)C1=C(C)OCCS1)C1CC1 (centres unmarked) [Compound 172] | – |
| 3.94^[b] | – | COC(c1ccc(Cl)cc1Cl)C1(NC(=O)c2cc([N+](=O)[O-])nn2C(F)F)CC1 (centres unmarked) [compound 122] | – |
| 3.05^[b] | – | COC(c1ccc(Cl)cc1Cl)C1(NC(=O)c2cc(C)nn2C)CC1 (centres unmarked) [compound 125] | – |
| – | 4.57^[b] | COC(c1ccc(Cl)cc1Cl)C(C)NC(=O)c1c(F)c(C)nn1C(F)F (centres unmarked) [compound 114] | – |
| 4.03^[b] | – | COC(c1ccc(Cl)cc1Cl)C(C)N(C(=O)c1cccnc1Cl)C1CC1 (centres unmarked) [Compound 170] | – |

From patent publication US20160100579A1, “NEMATICIDAL N-(2-SUBSTITUTED 2-PHENYLETHYL)CARBOXAMIDES AND N-(2-SUBSTITUTED 2-PHENYLETHYL)-THIOCARBOXAMIDES” (priority 2013, published 2016)
